Measurements as given in patent US20240299393A1, “SMALL MOLECULE DISRUPTORS OF PROTEIN INTERACTIONS IN HISTONE DEACETYLASE COMPLEXES” (Dana-Farber Cancer Institute, Inc., priority 2021, published 2024).
Entries after “also recorded” stand apart in the source; their conditions may differ.

Columns and labels:
[1] = system: HDAC class I and II enzymes (live yeast cells, HeLa nuclear extract, semi-purified human HDAC1); assay: HDAC-Glo I/II luminescence HDAC enzymatic assay; format: biochemical, S. cerevisiae; human; conditions: three HDAC sources
Description: The HDAC-Glo I/II screening system (Promega, cat #G6430) was adapted to measure the effect of compounds on the enzymatic activity of human and yeast HDAC sources. […] FLAG-HDAC1 was eluted from anti-FLAG beads before running the assay, using a FLAG peptide. Nuclear extracts from human HeLa cells were provided in the assay kit. HDAC enzymatic activity was measured following the manufacturer's protocol. Briefly, linear ranges of the assay were determined by measuring luminescence signals, in a serial dilution manner, for semi-purified human HDAC1, or live yeast cells, diluted in the HDAC-Glo I/II buffer. For HeLa nuclear extracts, the manufacturer provided this information in the assay kit. For the different HDAC sources, dilution factors corresponding to signals in the linear ranges were used. To test the effect of compounds (three or four replicates) on HDAC enzymatic activity, equal volumes of HDAC sources (5 μL), and inhibitors (5 μL) were added to the different wells of a white, flat bottom 384-well plate. The plate was then briefly centrifuged with a tabletop centrifuge, and gently shaken for 1 min at 700 rpm. The plate was tightly sealed to prevent evaporation, and incubated at room temperature for 1 h. […] Luminescence signals were measured using a TriStar luminometer from Berthold Technologies, with 1 s integration time per sample. […]

[2] = target: T1, PAH2 domain of yeast Sin3 (Saccharomyces cerevisiae, UniProt P22579); assay: Ligand-detected NMR (DLB, STD, CPMG-R2), yeast Sin3 PAH2; format: binding, S. cerevisiae; conditions: 300 μM compound, 10 μM protein
T1 construct: Residues 402-473 of S. cerevisiae Sin3 (PAH2 domain) were inserted into pET28PP, pMALC2XE, and pGEX6P2; made in house; host or cells: E. coli BL21 (DE3)
Description: (§1) Ligand-detected NMR experiments: all results were acquired using a 3 mm tube at 25° C. on a Bruker 600 MHz Avance II system equipped with a CPPTCI cryoprobe (Bruker BioSpin Corp.). In all experiments, the concentration of E6R was fixed at 300 μM (from a stock of 25 mM in deuterated DMSO) and the concentration of the protein at 10 μM. The volume of deuterated DMSO was kept constant (1.5%) in all tested samples. Right before the experiments, the compound and protein were diluted in 1×PBS containing 0.1% deuterated dithiothreitol (DTT) to a total volume of 200 μL. Samples were diluted by 5% with D2O for magnetic field lock. Spectra were acquired for ligand only, protein only, and ligand+protein. […] STD experiments [Mayer et al 2001] were acquired with 160 scans, with protein irradiation applied for 3 s at 0 ppm and −20 ppm for the on and off resonance experiments, respectively. On and off resonance spectra were collected and stored separately. One-dimensional CPMG-R2 edited experiments [Hajduk et al 1997] were collected for samples with and without proteins using seven CPMG delays (0, 25, 50, 100, 300, 500, and 800 ms) with four scans per delay. Proton spectra used to measure DLB and chemical shift perturbations in the absence and presence of the proteins were recorded with 16 scans using a recycle delay of 3 s. […]

[3] = system: yeast S. cerevisiae Sin3 PAH1 and PAH3 domains; assay: Ligand-detected NMR, yeast Sin3 PAH1 and PAH3; format: binding; conditions: FIG. 27
Description: as §1

[4] = system: full-length G. princeps luciferase; assay: GPCA control with full-length luciferase; format: cell-based, Gaussia princeps; conditions: 16 h
Description: The ability of compounds to inhibit binary PPIs in the Sin3/Rpd3L HDAC complex was tested by GPCA in a high-throughput screening format. Interactions identified in the mapping at 1.0% […]2 detection cutoff were reconstituted by expressing protein pairs in the exact same orientations. […] HEK293T cells were transfected with 100 ng of each GPCA plasmid expressing either protein X, or protein Y, as described above. […] The luminescence signal for each PPI was measured by averaging the different DMSO replicates, and calculating the standard deviation of DMSO values for each interaction. For each PPI, an individual data point for every compound tested was obtained and this value was compared to the averaged DMSO value. For each interaction, a particular compound was scored as a PPI inhibitor when it decreased its luminescence signal by at least three standard deviations compared to the corresponding averaged DMSO value. […] 50 μL/well of the Renilla luciferase substrate (Renilla Luciferase Assay system, cat #E2820, Promega) were then added and luminescence was read approximately two minutes after injection using a Centro XS^3 LB960 plate reader (3 s integration). For each plate, signal was measured twice and the first measurement was used for calculations. Results were normalized by averaging raw luminescence values from DMSO wells and dividing each data point by this averaged value.

T1 sequence (P22579 402-473): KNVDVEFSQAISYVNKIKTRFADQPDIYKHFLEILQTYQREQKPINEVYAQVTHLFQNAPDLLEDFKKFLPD

For `CC(/C=C/C(=O)NO)=C\[C@@H](C)C(=O)c1ccc(N(C)C)cc1` [TSA, trichostatin A], the “inhibition of HDAC enzymatic activity” value [1] was “systematically reduced HDAC activity”.

For `C[C@@H](NC(=O)c1c(O)n2ccccc2nc1=O)c1ccccc1` [E6R, 4-hydroxy-2-oxo-N—((R)-1-phenylethyl)-3,4-dihydro-2H-pyrido[, 2-a]pyrimidine-3-carboxamide], the “binding to yeast Sin3 PAH2 by NMR” value [2] was “Sin3 PAH2 binder; also recorded: bound state” and the “binding to other PAH domains of yeast Sin3 by NMR” value [3] was “can bind”.

For `CC(NC(=O)c1c(O)n2ccccc2nc1=O)c1ccccc1` (racemic) [E6], the “effect on full-length G. princeps luciferase” value [4] was “does not perturb”.
